For one data set, the target named is hmGlu1 (Homo sapiens, UniProt Q13255). The data set is described as follows: Calcium mobilization mGlu1 PAM potency assay. It is filed as cell-based. The note with it: for Emax: T-REx-293, read-out: hmGlu1 % Glu Max (±SEM). (In general: Calcium flux is commonly read through the fluorescence of an indicator in the cells.)
The test system of data set [1] is amphetamine-induced hyperlocomotion in WT rats. The experiment in a line: Amphetamine-induced hyperlocomotion. The note with it: doses up to 100 mg/kg i.p. The data set is classed as in vivo, rat.
Data set [2] concerns the target T1, mGlu1 WT receptor (Homo sapiens, UniProt Q13255). It is filed as cell-based. The settings on record: 10 μM PAM.
For a further data set, the target named is hmGlu4 (Homo sapiens, UniProt Q14833). The data set is described as follows: Calcium mobilization mGlu4 assay. It is filed as cell-based.
The target in data set [3] is T1, mGlu1 WT receptor. The data set is classed as cell-based.
The target of another data set is CYP3A4 (Homo sapiens, UniProt P08684). The data set is described as follows: Cytochrome P450 inhibition. It is filed as in vitro ADME.
The next data set concerns the target CYP2C9 (Homo sapiens, UniProt P11712). The data set is described as follows: Cytochrome P450 inhibition. It is filed as in vitro ADME.
The target in a further data set is T2, CYP1A2 (Homo sapiens, UniProt P05177).
T2 sequence (P05177 1-516): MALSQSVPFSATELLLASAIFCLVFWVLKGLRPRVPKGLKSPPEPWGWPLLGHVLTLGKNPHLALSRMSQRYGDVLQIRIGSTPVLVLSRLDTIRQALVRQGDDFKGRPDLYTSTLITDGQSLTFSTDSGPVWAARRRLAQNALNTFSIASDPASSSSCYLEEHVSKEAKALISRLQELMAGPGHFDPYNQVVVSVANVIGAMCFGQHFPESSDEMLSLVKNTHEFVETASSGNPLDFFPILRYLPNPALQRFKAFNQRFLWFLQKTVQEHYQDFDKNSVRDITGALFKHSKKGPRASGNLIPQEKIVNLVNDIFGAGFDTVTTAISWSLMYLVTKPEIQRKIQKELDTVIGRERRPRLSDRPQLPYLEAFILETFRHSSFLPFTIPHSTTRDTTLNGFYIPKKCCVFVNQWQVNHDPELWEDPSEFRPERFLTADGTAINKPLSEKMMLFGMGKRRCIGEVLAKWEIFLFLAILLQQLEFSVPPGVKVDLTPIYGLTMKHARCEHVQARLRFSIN
The data set is described as follows: Cytochrome P450 inhibition. The data set is classed as in vitro ADME.

Another data set concerns the target CYP2D6 (Homo sapiens, UniProt P10635). The experiment in a line: Cytochrome P450 inhibition. It is filed as in vitro ADME.
The next data set has as its target mGlu1 K563N mutant (Homo sapiens, UniProt Q13255, K563N). The data set is described as follows: Calcium mobilization in stable Sz mutant cell line. The settings on record: agonist DHPG. The data set is classed as cell-based.
A further data set has as its target mGlu1 P1015A mutant (Homo sapiens, UniProt Q13255, P1015A). The experiment in a line: Calcium mobilization in stable Sz mutant cell line. It is filed as cell-based. The settings on record: agonist DHPG.
A further data set deals with mGlu1 Sz mutants. The experiment in a line: Calcium mobilization in stable cell lines expressing schizophrenia. The data set is classed as cell-based, human.
[4] abbreviates: hmGlu1 EC50, calcium mobilization, average of n = 3 performed in triplicate.

SMILES strings stand for the structures. Where only a bound is given, the exact number is not on record here.

Chain of hmGlu1 (Q13255 19-1194): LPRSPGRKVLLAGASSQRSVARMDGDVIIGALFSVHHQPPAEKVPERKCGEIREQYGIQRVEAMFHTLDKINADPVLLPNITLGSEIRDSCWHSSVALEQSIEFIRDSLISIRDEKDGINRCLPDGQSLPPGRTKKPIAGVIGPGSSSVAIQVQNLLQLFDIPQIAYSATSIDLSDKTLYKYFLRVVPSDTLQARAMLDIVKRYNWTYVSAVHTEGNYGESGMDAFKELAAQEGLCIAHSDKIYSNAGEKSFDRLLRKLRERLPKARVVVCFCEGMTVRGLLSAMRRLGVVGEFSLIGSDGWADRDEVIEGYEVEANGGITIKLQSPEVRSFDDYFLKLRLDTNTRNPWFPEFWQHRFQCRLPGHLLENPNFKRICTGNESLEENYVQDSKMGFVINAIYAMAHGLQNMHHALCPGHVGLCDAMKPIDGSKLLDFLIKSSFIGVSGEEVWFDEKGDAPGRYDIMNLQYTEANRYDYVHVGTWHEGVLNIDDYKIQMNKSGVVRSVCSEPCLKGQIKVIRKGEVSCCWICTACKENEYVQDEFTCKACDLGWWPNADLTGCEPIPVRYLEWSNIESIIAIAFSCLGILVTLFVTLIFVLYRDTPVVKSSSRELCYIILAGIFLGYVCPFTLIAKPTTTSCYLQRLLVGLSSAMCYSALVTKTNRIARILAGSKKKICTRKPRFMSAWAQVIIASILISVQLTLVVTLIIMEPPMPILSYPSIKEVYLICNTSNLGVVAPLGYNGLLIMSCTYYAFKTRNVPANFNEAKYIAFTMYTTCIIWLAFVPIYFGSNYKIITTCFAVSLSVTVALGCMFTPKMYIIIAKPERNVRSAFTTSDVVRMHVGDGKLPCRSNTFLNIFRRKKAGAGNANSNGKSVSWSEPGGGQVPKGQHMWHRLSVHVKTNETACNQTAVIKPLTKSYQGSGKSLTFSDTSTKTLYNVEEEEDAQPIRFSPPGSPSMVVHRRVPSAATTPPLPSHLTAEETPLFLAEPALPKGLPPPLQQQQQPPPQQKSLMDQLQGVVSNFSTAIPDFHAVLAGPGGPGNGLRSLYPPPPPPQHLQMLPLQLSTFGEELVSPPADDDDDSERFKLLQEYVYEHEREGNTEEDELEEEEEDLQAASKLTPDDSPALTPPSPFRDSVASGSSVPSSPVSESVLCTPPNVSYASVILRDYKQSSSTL
T1 sequence (Q13255 19-1194): as above
Chain of hmGlu4 (Q14833 33-912): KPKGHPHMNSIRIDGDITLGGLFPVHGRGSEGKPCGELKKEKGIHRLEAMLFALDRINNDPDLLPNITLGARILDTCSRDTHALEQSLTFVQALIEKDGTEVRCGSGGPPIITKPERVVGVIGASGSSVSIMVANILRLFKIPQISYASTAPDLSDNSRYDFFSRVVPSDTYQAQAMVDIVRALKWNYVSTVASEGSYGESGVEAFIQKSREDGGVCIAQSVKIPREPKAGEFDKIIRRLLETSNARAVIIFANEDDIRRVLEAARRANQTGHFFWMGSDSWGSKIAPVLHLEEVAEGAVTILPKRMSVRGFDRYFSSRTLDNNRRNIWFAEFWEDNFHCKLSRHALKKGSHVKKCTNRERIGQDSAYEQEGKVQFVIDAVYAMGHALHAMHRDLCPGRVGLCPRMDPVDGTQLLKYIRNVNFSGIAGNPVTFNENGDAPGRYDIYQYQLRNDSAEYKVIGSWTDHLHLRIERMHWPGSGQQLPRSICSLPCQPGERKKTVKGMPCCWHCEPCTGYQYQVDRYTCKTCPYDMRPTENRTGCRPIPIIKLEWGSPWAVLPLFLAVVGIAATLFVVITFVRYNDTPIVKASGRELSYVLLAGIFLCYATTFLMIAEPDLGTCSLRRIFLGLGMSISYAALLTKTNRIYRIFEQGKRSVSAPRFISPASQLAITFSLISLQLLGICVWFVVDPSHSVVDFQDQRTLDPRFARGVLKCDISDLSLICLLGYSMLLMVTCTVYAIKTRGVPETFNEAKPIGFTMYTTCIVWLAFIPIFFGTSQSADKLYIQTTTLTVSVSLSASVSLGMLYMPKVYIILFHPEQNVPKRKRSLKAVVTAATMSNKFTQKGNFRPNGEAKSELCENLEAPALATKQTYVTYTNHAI
Chain of mGlu1 K563N mutant (Q13255 19-1194 K563N): as the sequence (Q13255 19-1194) above, with K545N counted along it
Chain of mGlu1 P1015A mutant (Q13255 19-1194 P1015A): as the sequence (Q13255 19-1194) above, with P997A counted along it
Chain of CYP3A4 (P08684 whole entry): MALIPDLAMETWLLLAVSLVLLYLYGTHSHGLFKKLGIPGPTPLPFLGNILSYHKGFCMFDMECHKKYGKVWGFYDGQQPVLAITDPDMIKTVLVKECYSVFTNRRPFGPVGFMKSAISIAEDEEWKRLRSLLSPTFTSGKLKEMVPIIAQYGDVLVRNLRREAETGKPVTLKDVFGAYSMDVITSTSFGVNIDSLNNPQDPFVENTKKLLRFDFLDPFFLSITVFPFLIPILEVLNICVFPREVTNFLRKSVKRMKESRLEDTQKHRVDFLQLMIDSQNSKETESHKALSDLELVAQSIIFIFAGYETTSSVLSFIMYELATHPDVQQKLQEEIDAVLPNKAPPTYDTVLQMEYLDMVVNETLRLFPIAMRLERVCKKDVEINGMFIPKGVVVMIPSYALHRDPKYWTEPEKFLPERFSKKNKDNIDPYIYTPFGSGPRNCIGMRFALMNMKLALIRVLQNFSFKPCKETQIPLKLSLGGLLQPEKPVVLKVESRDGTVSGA
Chain of CYP2D6 (P10635 whole entry): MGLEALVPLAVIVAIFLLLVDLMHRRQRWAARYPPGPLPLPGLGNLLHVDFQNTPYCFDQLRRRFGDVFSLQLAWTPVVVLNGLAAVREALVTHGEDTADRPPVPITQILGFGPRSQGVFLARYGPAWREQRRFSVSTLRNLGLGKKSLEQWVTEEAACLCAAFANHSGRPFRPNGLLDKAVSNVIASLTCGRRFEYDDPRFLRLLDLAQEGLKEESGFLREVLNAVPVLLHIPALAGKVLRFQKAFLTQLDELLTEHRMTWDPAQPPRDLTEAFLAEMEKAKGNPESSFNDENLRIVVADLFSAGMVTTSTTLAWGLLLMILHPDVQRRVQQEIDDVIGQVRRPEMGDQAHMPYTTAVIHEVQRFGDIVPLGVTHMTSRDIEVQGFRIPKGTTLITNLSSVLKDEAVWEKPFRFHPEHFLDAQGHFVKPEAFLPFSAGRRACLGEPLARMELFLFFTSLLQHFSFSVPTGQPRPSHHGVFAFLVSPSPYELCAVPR
Chain of CYP2C9 (P11712 whole entry): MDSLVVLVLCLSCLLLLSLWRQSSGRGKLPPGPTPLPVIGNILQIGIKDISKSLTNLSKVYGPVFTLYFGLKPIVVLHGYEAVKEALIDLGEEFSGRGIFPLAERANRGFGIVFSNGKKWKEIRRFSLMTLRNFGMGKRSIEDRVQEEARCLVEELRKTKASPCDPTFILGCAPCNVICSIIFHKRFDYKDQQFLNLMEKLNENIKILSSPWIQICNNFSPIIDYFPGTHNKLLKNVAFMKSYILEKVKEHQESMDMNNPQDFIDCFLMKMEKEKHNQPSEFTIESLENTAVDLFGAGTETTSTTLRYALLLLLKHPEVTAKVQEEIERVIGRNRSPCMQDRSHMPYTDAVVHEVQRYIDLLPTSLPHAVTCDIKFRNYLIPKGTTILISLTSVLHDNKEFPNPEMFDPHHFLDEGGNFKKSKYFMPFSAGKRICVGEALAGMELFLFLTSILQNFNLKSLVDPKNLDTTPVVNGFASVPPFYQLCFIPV

By EC50 is commonly meant the midpoint of the concentration-response curve. Take `Cc1cccnc1C(=O)Nc1ccc(N2C(=O)c3cccc(C)c3C2=O)c(Cl)c1` [23a]: the Emax at hmGlu1 came to 101 ± 7%. For the same compound, on hmGlu1 (setting [4]), the concentration giving a half-maximal response (EC50) was 176 nM.
Take `Cc1ccc2c(c1)C(=O)N(c1ccc(NC(=O)c3ncccc3C)cc1Cl)C2=O` [23b]: the Emax at hmGlu1 amounted to 130 ± 26%. For the same compound, at hmGlu1 (setting [4]), the EC50 was over 10000 nM.
For the compound `Cc1cccnc1C(=O)Nc1ccc(N2C(=O)c3cccc(Cl)c3C2=O)c(Cl)c1` [23c], the “effect on amphetamine-induced hyperlocomotion” value in [1] is on record as “behaved similarly”. The “left-ward fold shift of the glutamate concentration response curve” value on mGlu1 WT receptor [2] is about 3 fold. For the same compound, the EC50 is 199 nM at hmGlu4; 372 nM on hmGlu1 (setting [4]); 370 nM on hmGlu1 (hmGlu1 EC50, text and Figure 6). In addition, the “hmGlu4 % Glu Max” value at hmGlu4 (calcium mobilization) turned out to be 55%. For the same compound, the “leftward fold shift of the DHPG concentration-response curve” value at mGlu1 WT receptor [3] (10 μM PAM, WT mGlu1) stood at 3.4 fold. Moreover, the “hmGlu1 % Glu Max (±SEM)” value on hmGlu1 (calcium mobilization) is on record as 126 ± 25%.
With `Cc1cccnc1C(=O)Nc1ccc(N2C(=O)c3cccc(F)c3C2=O)c(Cl)c1` [23e], the Emax at hmGlu1 came out at 90 ± 15%. Moreover, the EC50 on hmGlu1 (setting [4]) was found to be 418 nM.
For the compound `Cc1cccnc1C(=O)Nc1ccc(N2C(=O)c3ccc(F)cc3C2=O)c(Cl)c1` [23f], the EC50 at hmGlu1 (setting [4]) is over 10000 nM.
For `Cc1cccc2c1C(=O)N(c1ccc(NC(=O)c3ncccc3Cl)cc1Cl)C2=O` [24a], the Emax at hmGlu1 turned out to be 110 ± 21%. At hmGlu1 (setting [4]), the EC50 turned out to be 177 nM.
Consider `Cc1ccc2c(c1)C(=O)N(c1ccc(NC(=O)c3ncccc3Cl)cc1Cl)C2=O` [24b], for which the Emax at hmGlu1 was 82 ± 4%. For the same compound, the concentration giving a half-maximal response (EC50) at hmGlu1 (setting [4]) was found to be 832 nM.
One may read the IC50 as the concentration at which inhibition is half-maximal. As for `O=C(Nc1ccc(N2C(=O)c3cccc(Cl)c3C2=O)c(Cl)c1)c1ncccc1Cl` [24c, N-(3-chloro-4-(4-chloro-1,3-dioxoisoindolin-2-yl)phenyl)-3-chloropicolinamide], in data set [1], the “effect on amphetamine-induced hyperlocomotion” value is given as “no effect up to the highest dose”. For the same compound, the half-inhibitory concentration (IC50) on CYP3A4, on CYP2C9, at CYP1A2 and at CYP2D6 was over 30000 nM throughout. Besides, at hmGlu1 (calcium mobilization), the “hmGlu1 % Glu Max (±SEM)” value stood at 110 ± 15%. Moreover, the EC50 on hmGlu1 (setting [4]) was 391 nM; at hmGlu1 (hmGlu1 pEC50 (±SEM), calcium mobilization) it was 389 nM.
On to `O=C(Nc1ccc(N2C(=O)c3cccc(F)c3C2=O)c(Cl)c1)c1ncccc1Cl` [24e], for which the Emax at hmGlu1 was 117 ± 9%. The half-maximal effective concentration (EC50) at hmGlu1 (setting [4]) was determined as 1140 nM.
For `N[C@H](C(=O)O)c1cc(O)cc(O)c1` [DHPG, (S)-3,5-dihydroxyphenylglycine], the “calcium response, % of WT” value on mGlu1 K563N mutant is recorded as about 110%. The “calcium response, % of WT response” value at mGlu1 P1015A mutant is about 90%; in the data set with mGlu1 Sz mutants (agonist DHPG, majority of mutants, typically) it was 55–75%. In addition, it took 2500 nM to reach a half-maximal effect at mGlu1 WT receptor [3] (EC50).
On to `N[C@@H](CCC(=O)O)C(=O)O` [glutamate, L-glutamic acid], for which the “calcium response, % of the WT response” value in the data set with mGlu1 Sz mutants (agonist glutamate, mutants typically, except K563N and P1015A) is reported as 45–65%.

These data come from PMC4201332 (ACS Chemical Biology, 2014).
